The test system of the data set is CCRIS mutagenicity, Ames/micronucleus/aberration tests. The data set can be described thus: CCRIS mutagenicity studies.
The mark [1] stands for this setting: Test System: AMES SALMONELLA TYPHIMURIUM, Strain/Indicator: TA98, Metabolic Activation: NONE, Method: STANDARD PLATE.
[2] abbreviates: Test System: AMES SALMONELLA TYPHIMURIUM, Strain/Indicator: TA100, Metabolic Activation: NONE, Method: STANDARD PLATE.

Calls of active or inactive are those of the source. No rule for the calls is given here.

`COC(=O)C12OC1(C)C(C(C)C)OC2=O` (stereo unspecified): the mutagenic call was “active; positive” (Test System: AMES SALMONELLA TYPHIMURIUM, Strain/Indicator: TA98, Metabolic Activation: NONE, Method: DISK ASSAY); “active; positive” under setting [1]; “active; positive” (Test System: AMES SALMONELLA TYPHIMURIUM, Strain/Indicator: TA98, Metabolic Activation: RAT, LIVER, S-9, AROCLOR 1254, Method: DISK ASSAY); “active; positive” (Test System: AMES SALMONELLA TYPHIMURIUM, Strain/Indicator: TA98, Metabolic Activation: RAT, LIVER, S-9, AROCLOR 1254, Method: STANDARD PLATE); “inactive; negative” under setting [2]; “active; positive” (Test System: AMES SALMONELLA TYPHIMURIUM, Strain/Indicator: TA100, Metabolic Activation: RAT, LIVER, S-9, AROCLOR 1254, Method: STANDARD PLATE).

Take `CC(O)CN(C)N=O` (stereo unspecified): the mutagenic call is “active; positive” (Test System: AMES SALMONELLA TYPHIMURIUM, Strain/Indicator: TA100, Metabolic Activation: HAMSTER, LIVER, S-9, 3-METHYLCHOLANTHRENE, Method: PREINCUBATION); “active; positive” (Test System: AMES SALMONELLA TYPHIMURIUM, Strain/Indicator: TA100, Metabolic Activation: HAMSTER, LIVER, S-9, PHENOBARBITAL, Method: PREINCUBATION); “active; positive” (Test System: AMES SALMONELLA TYPHIMURIUM, Strain/Indicator: TA100, Metabolic Activation: HAMSTER, LIVER, S-9, Method: PREINCUBATION); “active; positive” (Test System: AMES SALMONELLA TYPHIMURIUM, Strain/Indicator: TA100, Metabolic Activation: HUMAN, LIVER, S-9, Method: PREINCUBATION); “active; positive” (Test System: AMES SALMONELLA TYPHIMURIUM, Strain/Indicator: TA100, Metabolic Activation: MONKEY, LIVER, S-9, Method: PREINCUBATION); “active; positive” (Test System: AMES SALMONELLA TYPHIMURIUM, Strain/Indicator: TA100, Metabolic Activation: MOUSE, LIVER, S-9, 3-METHYLCHOLANTHRENE, Method: PREINCUBATION). For the same compound, the mutagenic call by setting is: (Test System: AMES SALMONELLA TYPHIMURIUM, Strain/Indicator: TA100, Metabolic Activation: MOUSE, LIVER, S-9, PHENOBARBITAL, Method: PREINCUBATION) “active; positive”; (Test System: AMES SALMONELLA TYPHIMURIUM, Strain/Indicator: TA100, Metabolic Activation: MOUSE, LIVER, S-9, Method: PREINCUBATION) “active; positive”; (Test System: AMES SALMONELLA TYPHIMURIUM, Strain/Indicator: TA100, Metabolic Activation: NONE, Method: PREINCUBATION) “inactive; negative”; (Test System: AMES SALMONELLA TYPHIMURIUM, Strain/Indicator: TA100, Metabolic Activation: RABBIT, LIVER, S-9, Method: PREINCUBATION) “active; positive”; (Test System: AMES SALMONELLA TYPHIMURIUM, Strain/Indicator: TA100, Metabolic Activation: RAT, LIVER, CYTOSOL, PCB, Method: PREINCUBATION) “inactive; negative”; (Test System: AMES SALMONELLA TYPHIMURIUM, Strain/Indicator: TA100, Metabolic Activation: RAT, LIVER, MICROSOMES AND CYTOSOL, PCB, Method: PREINCUBATION) “active; positive”. The mutagenic call by setting is: (Test System: AMES SALMONELLA TYPHIMURIUM, Strain/Indicator: TA100, Metabolic Activation: RAT, LIVER, MICROSOMES AND G6PDH, PCB, Method: PREINCUBATION) “active; positive”; (Test System: AMES SALMONELLA TYPHIMURIUM, Strain/Indicator: TA100, Metabolic Activation: RAT, LIVER, MICROSOMES, PCB, Method: PREINCUBATION) “active; positive”; (Test System: AMES SALMONELLA TYPHIMURIUM, Strain/Indicator: TA100, Metabolic Activation: RAT, LIVER, S-9 (HEATED), PCB, Method: PREINCUBATION) “inactive; negative”; (Test System: AMES SALMONELLA TYPHIMURIUM, Strain/Indicator: TA100, Metabolic Activation: RAT, LIVER, S-9, 3-METHYLCHOLANTHRENE, Method: PREINCUBATION) “active; positive”; (Test System: AMES SALMONELLA TYPHIMURIUM, Strain/Indicator: TA100, Metabolic Activation: RAT, LIVER, S-9, PCB, Method: PREINCUBATION) “active; positive”; (Test System: AMES SALMONELLA TYPHIMURIUM, Strain/Indicator: TA100, Metabolic Activation: RAT, LIVER, S-9, PHENOBARBITAL, Method: PREINCUBATION) “active; positive”. Also, the mutagenic call is, setting by setting: (Test System: AMES SALMONELLA TYPHIMURIUM, Strain/Indicator: TA100, Metabolic Activation: RAT, LIVER, S-9, Method: PREINCUBATION) “active; positive”; (Test System: AMES SALMONELLA TYPHIMURIUM, Strain/Indicator: TA100, Metabolic Activation: RAT, LIVER, S-9 WITHOUT NADP+, PCB, Method: PREINCUBATION) “inactive; negative”; (Test System: AMES SALMONELLA TYPHIMURIUM, Strain/Indicator: TA100, Metabolic Activation: TOBACCO CELLS, Method: PREINCUBATION) “inactive; negative”; (Test System: AMES SALMONELLA TYPHIMURIUM, Strain/Indicator: TA100, Method: PREINCUBATION) “active; positive”; (Test System: CHINESE HAMSTER V-79, Strain/Indicator: V-79/OUABAIN, Metabolic Activation: HAMSTER, HEPATOCYTES, Method: CELL-MEDIATED) “active; positive”.

In the case of `Cc1cc2cc3ccccc3c3ccc4cccc1c4c23`, the mutagenic call (Test System: AMES SALMONELLA TYPHIMURIUM, Strain/Indicator: TA100, Metabolic Activation: RAT, INTACT HEPATOCYTES, AROCLOR 1254, Method: PREINCUBATION) is “active; positive” and the mutagenic call (Test System: AMES SALMONELLA TYPHIMURIUM, Strain/Indicator: TA100, Metabolic Activation: RAT, NADPH-FORTIFIED HOMOGENIZED HEPATOCYTES, AROCLOR 1254, Method: PREINCUBATION) was “active; positive”.

As to `CC(C)CN(N=O)C(N)=O`, the mutagenic call (Test System: E. COLI B, Strain/Indicator: H/R30R, Metabolic Activation: NONE) is “active; positive” and the mutagenic call (Test System: E. COLI B, Strain/Indicator: HS30R, Metabolic Activation: NONE) is “active; positive”.

On to `C/C=C/C1=CC(=O)[C@]23C[C@H]2C(C)(C)O[C@]3(O)C1=O`, for which the mutagenic call reads like this: (Test System: AMES SALMONELLA TYPHIMURIUM, Strain/Indicator: TA97, Metabolic Activation: NONE) “active; positive”; (Test System: AMES SALMONELLA TYPHIMURIUM, Strain/Indicator: TA98, Metabolic Activation: NONE) “inactive; negative”; (Test System: AMES SALMONELLA TYPHIMURIUM, Strain/Indicator: TA100, Metabolic Activation: NONE) “active; positive”; (Test System: AMES SALMONELLA TYPHIMURIUM, Strain/Indicator: TA102, Metabolic Activation: NONE) “active; positive”.

`Cc1cncc(C)c1.Cc1cncc(C)c1.[Cl][Pt][Cl]`: the mutagenic call by setting is: (Test System: AMES SALMONELLA TYPHIMURIUM, Strain/Indicator: TA92, Metabolic Activation: NONE, Method: STANDARD PLATE) “inactive; negative”; under setting [1], “active; positive”; under setting [2], “inactive; negative”; (Test System: AMES SALMONELLA TYPHIMURIUM, Strain/Indicator: TA2410, Metabolic Activation: NONE, Method: STANDARD PLATE) “active; positive”.

Values taken from PubChem BioAssay AID1259407 (Chemical Carcinogenesis Research Information System (CCRIS), 2018).
